Calls of active or inactive are those of the source.
What was measured:
Melanocortin receptor 4 = Melanocortin receptor 4 (Homo sapiens, UniProt P32245); type: functional, cell-based;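 note: Cell-based assay with luminescence read-out, confirmatory dose-response testing for agonist activity of biased ligands at MC4R; human U2OS cells with tagged receptor and beta-arrestin; potency of agonists that increase receptor coupling to beta-arrestin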
HEK293 [1] = test: membrane integrity loss in HEK cells – cell-based, fluorescence, cytotoxicity control for IDE activator project, dose response (AID 588440); type: functional; conditions: Homo sapiens;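 note: cytotoxicity by LDH release measuring loss of membrane integrity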
Insulin-degrading enzyme [2] = target: T1, Insulin-degrading enzyme (Homo sapiens, UniProt P14735); test: cellular IDE activation of Abeta substrate cleavage – fluorescence polarization, HEK cells, dose response (AID 588439); type: functional, cell-based
T1 sequence (P14735 whole entry): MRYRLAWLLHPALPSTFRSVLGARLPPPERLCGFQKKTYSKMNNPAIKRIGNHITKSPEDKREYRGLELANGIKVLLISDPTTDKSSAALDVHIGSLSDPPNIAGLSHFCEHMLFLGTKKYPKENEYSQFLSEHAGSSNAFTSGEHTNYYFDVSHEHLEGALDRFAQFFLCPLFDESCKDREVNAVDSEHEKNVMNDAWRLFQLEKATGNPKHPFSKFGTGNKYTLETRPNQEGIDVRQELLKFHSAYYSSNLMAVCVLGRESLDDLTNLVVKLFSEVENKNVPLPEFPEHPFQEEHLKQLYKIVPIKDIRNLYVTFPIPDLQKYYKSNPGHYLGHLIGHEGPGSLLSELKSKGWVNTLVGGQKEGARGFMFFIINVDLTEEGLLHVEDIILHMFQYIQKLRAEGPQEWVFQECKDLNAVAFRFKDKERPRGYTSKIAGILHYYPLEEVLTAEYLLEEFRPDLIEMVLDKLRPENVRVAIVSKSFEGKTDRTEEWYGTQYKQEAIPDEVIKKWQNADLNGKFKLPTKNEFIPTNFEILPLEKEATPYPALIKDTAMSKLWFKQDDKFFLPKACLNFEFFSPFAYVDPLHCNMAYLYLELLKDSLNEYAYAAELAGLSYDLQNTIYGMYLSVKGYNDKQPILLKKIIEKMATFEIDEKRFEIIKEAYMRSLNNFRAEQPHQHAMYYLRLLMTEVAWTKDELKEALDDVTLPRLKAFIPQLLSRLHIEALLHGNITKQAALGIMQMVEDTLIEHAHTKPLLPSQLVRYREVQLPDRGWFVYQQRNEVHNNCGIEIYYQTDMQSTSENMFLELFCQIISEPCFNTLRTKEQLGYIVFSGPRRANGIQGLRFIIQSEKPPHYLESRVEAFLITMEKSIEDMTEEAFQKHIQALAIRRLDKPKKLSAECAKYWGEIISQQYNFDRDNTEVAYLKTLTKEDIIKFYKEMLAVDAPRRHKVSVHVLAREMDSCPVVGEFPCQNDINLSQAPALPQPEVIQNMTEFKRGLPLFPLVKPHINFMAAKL

[3] = Trypanosoma cruzi growth suppression in host cells – NIH3T3 host cells, beta-gal luminescence, confirmation (AID 2044); type: functional, cell-based;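 note: intracellular parasites grown in NIH/3T3 mouse fibroblasts as host cells; luminescent beta-galactosidase reporter signal from transgenic T. cruzi replicating inside host cells; inhibitors lower the luminescence signal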
Insulin-degrading enzyme [4] = target: T1, Insulin-degrading enzyme; test: recombinant IDE activation, cell-free – biochemical, fluorescence polarization, counter-screen for IDE activator project, dose response (AID 588681)
HEK293 [5] = test: optical interference in Abeta FP readout, dose response, artefact control for IDE activator project, biochemical, fluorescence polarization (AID 588442); type: functional, cell-based; conditions: Homo sapiens
[6] = NIH3T3 cell viability loss – ATP luminescence, mouse fibroblasts, counter-screen, dose response (AID 2010); type: functional, cell-based;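 note: cells exposed to compound for about 90 hours before reading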
[7] = target: T2, Ubiquitin-conjugating enzyme E2 N (Homo sapiens, UniProt P61088); type: functional;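 note: Dose-response confirmation in a TR-FRET assay detecting UBC13-driven polyubiquitin chain formation, inhibition measured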
T2 sequence (P61088 whole entry): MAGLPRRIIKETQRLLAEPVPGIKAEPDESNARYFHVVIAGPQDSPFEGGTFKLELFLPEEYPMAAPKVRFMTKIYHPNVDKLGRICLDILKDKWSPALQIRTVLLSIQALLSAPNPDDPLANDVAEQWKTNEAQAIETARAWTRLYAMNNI

[8] = target: ATP-dependent molecular chaperone HSP82 (Candida albicans (strain WO-1) (Yeast), UniProt C4YTQ8); test: steroid-induced GRE reporter decrease in yeast – S. cerevisiae, luminescence, Hsp90 inhibitor project, dose response (AID 2400); type: functional, cell-based;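 note: beta-galactosidase luminescence from glucocorticoid response element reporter as proxy for Hsp90 function; inhibitor potency where signal loss means Hsp90 inhibition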
[9] = target: T3, Serine/threonine-protein phosphatase (Candida dubliniensis (strain CD36 / CBS 7987 / NCPF 3949 / NRRLY-17841) (Yeast), UniProt B9W6M3); test: blockers of CaCl2-induced CDRE-lacZ signaling – S. cerevisiae, luminescence, secondary, dose response (AID 2388); type: functional, cell-based;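 note: yeast reporter cells carrying a calcineurin-responsive lacZ construct stimulated with calcium chloride; luminescent beta-galactosidase reporter signal in whole cells rather than isolated phosphatase activity; potency for inhibition where a drop in reporter signal means calcineurin blockade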
T3 sequence (B9W6M3 whole entry): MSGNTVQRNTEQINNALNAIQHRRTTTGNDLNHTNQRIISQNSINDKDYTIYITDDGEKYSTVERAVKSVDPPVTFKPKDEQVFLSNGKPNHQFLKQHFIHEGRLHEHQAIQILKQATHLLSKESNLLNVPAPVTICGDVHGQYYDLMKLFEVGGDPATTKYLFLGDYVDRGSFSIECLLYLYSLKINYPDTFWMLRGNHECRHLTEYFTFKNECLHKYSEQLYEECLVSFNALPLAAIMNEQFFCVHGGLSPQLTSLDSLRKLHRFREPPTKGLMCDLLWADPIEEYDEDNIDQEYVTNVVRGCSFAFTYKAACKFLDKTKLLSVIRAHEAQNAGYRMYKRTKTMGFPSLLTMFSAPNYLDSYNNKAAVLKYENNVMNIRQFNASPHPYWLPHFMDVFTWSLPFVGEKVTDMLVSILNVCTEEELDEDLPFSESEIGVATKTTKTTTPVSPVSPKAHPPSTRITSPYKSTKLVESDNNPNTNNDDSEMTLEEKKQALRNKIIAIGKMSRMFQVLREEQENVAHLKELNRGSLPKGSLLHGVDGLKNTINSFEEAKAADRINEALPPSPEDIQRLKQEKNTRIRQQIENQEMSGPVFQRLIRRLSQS

[10] = fluconazole-exposed Candida albicans growth modulators – fluorescence, retest, confirmation (AID 2467); type: functional, cell-based
[11] = NIH-3T3 fibroblast cytotoxicity, dose response, cytotoxicity control, cell-based, fluorescence, Alamar Blue, secondary assay (AID 2327); type: functional;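 note: NIH-3T3 mouse fibroblasts cultured with fluconazole at 8 µg/mL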
[12] = target: T4, Hepatocyte nuclear factor 4-alpha (Homo sapiens, UniProt P41235); type: functional, cell-based;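 note: biochemical luminescence-based dose-response counterscreen measuring inhibition of HNF4 dimerization, run alongside a screen for blockers of ABHD5–perilipin-5 interaction; split luciferase complementation of HNF4 fusion proteins in cell lysate measuring dimerization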
T4 sequence (P41235 whole entry): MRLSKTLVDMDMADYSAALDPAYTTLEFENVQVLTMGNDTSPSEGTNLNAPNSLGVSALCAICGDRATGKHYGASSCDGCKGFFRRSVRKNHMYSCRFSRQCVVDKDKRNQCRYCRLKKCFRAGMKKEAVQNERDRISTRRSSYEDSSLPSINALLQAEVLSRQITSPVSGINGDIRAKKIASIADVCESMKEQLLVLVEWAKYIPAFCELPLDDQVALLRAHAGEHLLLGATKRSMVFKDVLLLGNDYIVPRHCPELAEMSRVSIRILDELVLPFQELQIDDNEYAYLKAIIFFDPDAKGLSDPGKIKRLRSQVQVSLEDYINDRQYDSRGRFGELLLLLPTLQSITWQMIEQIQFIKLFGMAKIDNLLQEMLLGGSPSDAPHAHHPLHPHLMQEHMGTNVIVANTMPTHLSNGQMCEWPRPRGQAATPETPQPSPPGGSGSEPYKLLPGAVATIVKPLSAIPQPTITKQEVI

[13] = target: T5, Rac GTPase-activating protein 1 (Homo sapiens, UniProt Q9H0H5); test: blockers of MgcRacGAP-driven Rac1 GTP hydrolysis – biochemical, ADP Hunter fluorescence, primary and confirmatory, confirmation (AID 624330); type: functional
T5 sequence (Q9H0H5 whole entry): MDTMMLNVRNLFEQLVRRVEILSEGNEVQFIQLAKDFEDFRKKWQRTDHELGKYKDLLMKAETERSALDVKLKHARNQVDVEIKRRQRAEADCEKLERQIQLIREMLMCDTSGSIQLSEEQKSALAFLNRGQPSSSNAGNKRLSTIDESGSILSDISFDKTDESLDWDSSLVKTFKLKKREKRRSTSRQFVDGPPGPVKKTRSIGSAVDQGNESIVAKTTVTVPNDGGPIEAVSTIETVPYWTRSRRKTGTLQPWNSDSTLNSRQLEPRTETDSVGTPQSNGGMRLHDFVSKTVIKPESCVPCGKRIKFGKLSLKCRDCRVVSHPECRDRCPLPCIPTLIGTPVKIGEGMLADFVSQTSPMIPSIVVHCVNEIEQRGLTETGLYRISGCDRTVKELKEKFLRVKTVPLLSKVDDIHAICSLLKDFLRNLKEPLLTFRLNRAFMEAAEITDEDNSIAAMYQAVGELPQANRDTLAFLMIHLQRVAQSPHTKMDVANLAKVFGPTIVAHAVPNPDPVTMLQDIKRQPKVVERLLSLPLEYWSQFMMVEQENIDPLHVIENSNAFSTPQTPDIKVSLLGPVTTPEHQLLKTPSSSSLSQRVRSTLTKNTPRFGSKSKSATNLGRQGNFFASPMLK

[14] = viability loss in HeLa cells – cytotoxicity control for MgcRacGAP inhibitor project, dose response (AID 624300); type: functional
INS1 = test: INS-1E survival protection against cytokine death – cell-based, luminescence, retest, dose response (AID 449756); type: functional; conditions: Rattus norvegicus;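 note: cell death triggered by IL-1 beta plus TNF-alpha plus IFN-gamma mixture; protective hits raise ATP signal compared with cytokine alone wells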
[15] = target: T6, Heat shock factor protein 1 (Mus musculus, UniProt P38532); test: enhancement of HSF1-driven luciferase signal – cell-based, NIH3T3, luminescence, dose retest, confirmation (AID 435004); type: functional;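 note: stress induced by proteasome inhibitor MG132 added 30 min after compound; luciferase reporter driven by HSF1 response element in NIH3T3 cells; actives raise luminescence as potentiators of the MG132 stress response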
T6 sequence (P38532 whole entry): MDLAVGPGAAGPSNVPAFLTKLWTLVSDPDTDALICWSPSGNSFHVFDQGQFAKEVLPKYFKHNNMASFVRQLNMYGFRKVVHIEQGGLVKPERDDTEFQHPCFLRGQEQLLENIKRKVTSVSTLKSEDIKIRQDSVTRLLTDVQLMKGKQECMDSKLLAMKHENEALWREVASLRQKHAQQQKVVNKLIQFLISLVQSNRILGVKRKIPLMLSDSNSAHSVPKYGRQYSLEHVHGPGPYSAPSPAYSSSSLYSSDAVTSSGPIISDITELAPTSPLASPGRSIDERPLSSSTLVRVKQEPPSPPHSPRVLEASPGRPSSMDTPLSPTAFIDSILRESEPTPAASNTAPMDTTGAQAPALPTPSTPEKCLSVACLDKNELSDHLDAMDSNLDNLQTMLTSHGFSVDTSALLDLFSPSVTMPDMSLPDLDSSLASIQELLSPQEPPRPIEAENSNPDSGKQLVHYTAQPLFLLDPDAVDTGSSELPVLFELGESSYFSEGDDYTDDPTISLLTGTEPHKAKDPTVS

[16] = reduction of Shn3 3'UTR-driven luciferase in osteoblasts – cell-based, Clone20 osteoblasts, firefly luciferase, cherry-picked, dose response (AID 624132); type: functional;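 note: firefly luciferase luminescence from reporter carrying the Shn3 3'UTR in osteoblasts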
[17] = loss of viability in HepG2 cells – cell-based, CellTiter-Glo, cherry-picked, cytotoxicity control for Shn3 inhibitor project, dose response (AID 624134); type: functional
[18] = non-specific 3'UTR reporter inhibition in Clone20-Shn3RL – cell-based, Renilla luciferase, cherry-picked, counter-screen for Shn3 inhibitor project, dose response (AID 624133); type: functional

Sequence of Melanocortin receptor 4 (P32245 whole entry): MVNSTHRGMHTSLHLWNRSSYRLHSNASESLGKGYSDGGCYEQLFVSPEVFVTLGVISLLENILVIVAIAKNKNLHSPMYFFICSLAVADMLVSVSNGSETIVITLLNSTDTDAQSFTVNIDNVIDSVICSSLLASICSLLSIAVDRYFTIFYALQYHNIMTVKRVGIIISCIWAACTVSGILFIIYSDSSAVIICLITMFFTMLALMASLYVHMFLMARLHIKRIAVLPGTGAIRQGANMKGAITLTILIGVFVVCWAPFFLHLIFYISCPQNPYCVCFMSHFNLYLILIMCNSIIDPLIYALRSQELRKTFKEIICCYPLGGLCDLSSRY
Sequence of ATP-dependent molecular chaperone HSP82 (C4YTQ8 whole entry): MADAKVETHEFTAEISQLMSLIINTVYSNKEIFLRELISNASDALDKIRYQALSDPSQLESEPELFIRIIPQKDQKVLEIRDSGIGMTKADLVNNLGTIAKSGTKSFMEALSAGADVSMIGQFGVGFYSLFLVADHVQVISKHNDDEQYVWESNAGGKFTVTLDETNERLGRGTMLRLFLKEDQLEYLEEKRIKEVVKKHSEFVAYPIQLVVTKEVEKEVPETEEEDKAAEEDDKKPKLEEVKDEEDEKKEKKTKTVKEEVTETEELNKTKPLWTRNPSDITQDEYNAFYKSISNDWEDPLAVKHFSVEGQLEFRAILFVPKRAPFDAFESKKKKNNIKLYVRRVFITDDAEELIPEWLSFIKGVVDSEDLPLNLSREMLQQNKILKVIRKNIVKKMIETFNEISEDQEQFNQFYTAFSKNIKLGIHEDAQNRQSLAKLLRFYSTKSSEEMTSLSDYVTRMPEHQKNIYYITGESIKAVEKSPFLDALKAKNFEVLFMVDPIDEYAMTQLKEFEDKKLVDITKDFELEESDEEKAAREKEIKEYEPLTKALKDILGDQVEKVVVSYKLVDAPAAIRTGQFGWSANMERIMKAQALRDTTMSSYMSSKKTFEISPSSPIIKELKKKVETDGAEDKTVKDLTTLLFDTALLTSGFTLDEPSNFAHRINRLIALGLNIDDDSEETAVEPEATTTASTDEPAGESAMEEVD

Structure (SMILES): O=C(CCN1C(=O)/C(=C/C=C/c2ccccc2)SC1=S)Nc1cccnc1
- EC50 (Melanocortin receptor 4): > 89.2 µM (inactive)

Structure (SMILES): CCN1CCN(CCNC(=O)c2ccc(/C=C3/Sc4ccccc4N(Cc4cccc(C)c4)C3=O)cc2)CC1
- IC50 (HEK293 [1]): 20.2 µM (inactive)
- EC50 (Insulin-degrading enzyme [2]): 23.2 µM (inactive)
- EC50 [3]: 1.29 µM (active)
- EC50 (Insulin-degrading enzyme [4]): > 54.7 µM (inactive)
- EC50 (HEK293 [5]): > 54.7 µM (inactive)
- EC50 [6]: 8.45 µM (active)
- IC50 [7]: > 20 µM (inactive)

Structure (SMILES): CCNc1nc(NC(C)C)nc(NC(C)(C)C)n1
- EC50 [8]: > 160 µM (inactive)
- EC50 [9]: > 180 µM (inactive)
- EC50 [10]: 0.11 µM (active)
- EC50 [11]: > 150 µM (inconclusive)

Structure (SMILES): CC(C)c1ccc(N2C=Nc3ccc(C(C)C)cc3C2)cc1
- IC50 [12]: 22.5 µM (inactive)

Structure (SMILES): COc1cc(-c2nc3ccc(C)cn3c2Nc2ccc3c(c2)OCCO3)ccc1O
- IC50 [13]: 34.2 µM (active)
- CC50 [14]: 100 µM (active)

Structure (SMILES): COc1ccc(/C=C2\Oc3cc(OCC(=O)N4CCC(C(=O)O)CC4)ccc3C2=O)c(OC)c1OC
- IC50 (HEK293 [1]): > 89.2 µM (inactive)
- EC50 (Insulin-degrading enzyme [2]): 22 µM (inactive)
- EC50 (Insulin-degrading enzyme [4]): 33 µM (inactive)
- EC50 (HEK293 [5]): 24 µM (inactive)

Structure (SMILES): Cc1ccc(C(=O)Nc2cccc(-c3cn4ccccc4n3)c2)cc1
- EC50 [8]: > 160 µM (inactive)
- EC50 [9]: > 180 µM (inactive)
- EC50 [10]: 0.628 µM (active)
- EC50 [11]: > 150 µM (inactive)

Structure (SMILES): CC(=O)Oc1c(Cl)cc(N(C(C)=O)S(=O)(=O)c2ccccc2)c2ccccc12
- AC50 (INS1): 4.34 µM (active)
- IC50 [12]: 10.1 µM (inactive)
- EC50 [15]: > 260 µM (inactive)

Structure (SMILES): O=C(NS(=O)(=O)Nc1ccccc1)C1=C(N2CCCC2)COC1=O
- IC50 (HEK293 [1]): > 89.2 µM (inactive)
- EC50 (Insulin-degrading enzyme [2]): > 54.7 µM (inactive)
- EC50 (Insulin-degrading enzyme [4]): > 54.7 µM (inactive)
- EC50 (HEK293 [5]): > 55.9 µM (inactive)

Structure (SMILES): CC1CN(S(=O)(=O)c2ccc(C(=O)Nc3nncs3)cc2)CC(C)O1 (stereo not drawn)
- IC50 (HEK293 [1]): > 89.2 µM (inactive)
- EC50 (Insulin-degrading enzyme [2]): > 54.7 µM (inactive)
- EC50 (Insulin-degrading enzyme [4]): > 54.7 µM (inactive)
- EC50 (HEK293 [5]): > 54.7 µM (inactive)

Structure (SMILES): OC[C@@H]1CN(Cc2ccncc2)C[C@H](n2cnc3c(N4CCN(c5ccccc5)CC4)ncnc32)O1
- AC50 [16]: 2.38 µM (active)
- AC50 [17]: 3.81 µM (active)
- AC50 [18]: 5.72 µM (active)

Structure (SMILES): CCOC(=O)C(/C=N/c1ccc2c(c1)nnn2-c1ccc(Cl)cc1)=C(\O)OCC
- EC50 (Melanocortin receptor 4): > 89.2 µM (inactive)
